# Reference: patent publication US20230104578A1, “ANTI-ADRENOMEDULLIN (ADM) ANTIBODY OR ANTI-ADM ANTIBODY FRAGMENT OR ANTI-ADM NON-IG SCAFFOLD FOR USE IN THERAPY OR PREVENTION OF SHOCK” (ADRENOMED AG, priority 2020, published 2023)
# Experiments:
# [1] = system: mice with CLP-induced sepsis; settings: pre-treatment; cited from earlier work
# [2] = system: patients with septic shock; assay: AdrenOSS-2 phase II clinical trial in septic shock with elevated adrenomedullin; assay type: in vivo, human
# Source text: AdrenOSS-2 is a double-blind, placebo-controlled, randomized, multicenter, proof of concept and dose-finding phase II clinical trial to investigate the safety, tolerability and efficacy of the N-terminal ADM antibody named Adrecizumab in patients with septic shock and elevated adrenomedullin (Geven et al. BMJ Open 2019;9:e024475). In total, 301 patients with septic shock and bio-ADM concentration >70 pg/mL were randomized (2:1:1) to treatment with a single intravenous infusion over approximately 1 hour with either placebo (n=152), adrecizumab 2 ng/kg (n=72) or adrecizumab 4 ng/kg (n=77). All-cause mortality within 28 (90) days after inclusion was 25.8% (34.8%). Mean age was 68.4 years and 61% were male. For the per protocol analysis, n=294 patients remained eligible, and 14-day all-cause mortality rate was 18.5%.
# In patients treated with Adrecizumab (both doses combined, per protocol population), a trend to lower short term mortality (14 days post admission) was observed compared to placebo (Hazard ratio (HR) 0.701 [0.408-1.21], p=0.100) (FIG. 8).
# No such interaction was detected which in other words means, that the beneficial treatment effect was detectable for all patients independent of their pre-dose bio-ADM concentration.
# This is further illustrated in Kaplan Meier Plots, where the patient populations were separated by their pre-dose bio-ADM concentration (below/above bio-ADM median) (see FIG. 11a and FIG. 11b).
# endotoxemic rats = settings: pre-treatment; cited from earlier work
substance,measurement,setting,value
"Adrecizumab: humanized version of an N-terminal anti-ADM antibody; heavy chain SEQ ID NO: 32, light chain SEQ ID NO: 33",renal vascular leakage,[1],attenuated renal vascular leakage
same,"HR, 14-day mortality vs placebo","[2]; DPP3 above 50 ng/mL, n=44",1.69
same,"HR, 14-day mortality vs placebo","[2]; pre-dose DPP3 < 50 ng/mL, n=244",0.426
same,"HR, 14-day mortality vs placebo","[2]; pre-dose DPP3 < 40, n=227",0.385
same,"HR, 14-day mortality vs placebo","[2]; pre-dose DPP3 < 60, n=254",0.449
same,"HR, 14-day mortality vs placebo","[2]; pre-dose DPP3 < 70, n=261",0.546
same,"HR, 14-day mortality vs placebo","[2]; pre-dose DPP3 < 90, n=273",0.606
same,renal vascular leakage,endotoxemic rats,attenuated renal vascular leakage
